According to ChEMBL document CHEMBL1127508, “Conformationally restricted competitive antagonists of human/rat corticotropin-releasing factor” (J Med Chem, 1994):

Key:
[1] = target: T1, Corticotropin-releasing factor receptor 1 (Rattus norvegicus) (UniProt P35353); assay: Intrinsic activity in ACTH release assay as percent CRF response; type: functional
T1 sequence (whole entry): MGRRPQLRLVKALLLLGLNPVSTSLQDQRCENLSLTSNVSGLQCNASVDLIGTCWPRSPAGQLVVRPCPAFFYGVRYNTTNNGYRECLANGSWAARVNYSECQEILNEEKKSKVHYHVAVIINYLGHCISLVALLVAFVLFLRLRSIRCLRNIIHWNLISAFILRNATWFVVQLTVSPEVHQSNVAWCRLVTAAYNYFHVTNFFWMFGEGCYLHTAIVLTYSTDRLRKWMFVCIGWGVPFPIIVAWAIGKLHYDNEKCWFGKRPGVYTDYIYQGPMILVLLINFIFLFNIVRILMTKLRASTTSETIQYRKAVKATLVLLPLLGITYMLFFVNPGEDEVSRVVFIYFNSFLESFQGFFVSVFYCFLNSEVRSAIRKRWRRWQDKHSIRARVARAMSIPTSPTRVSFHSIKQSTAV

[2] = target: T1, Corticotropin-releasing factor receptor 1 (Rattus norvegicus); assay: Relative antagonistic potency in vitro measuring alteration of CRF-induced release of ACTH by rat anterior pituitary cells in culture; type: functional, cell-based; conditions: Pituitary gland cell

Intrinsic activity [1] | Activity [2] | Structure (SMILES)
3 | 0.02 | CCCC[C@H](NC(=O)[C@@H]1CCC(=O)NCCCC[C@H](NC(=O)[C@H](CCCN=C(N)N)NC(=O)[C@H](CC(C)C)NC(=O)[C@H](CC(C)C)NC(=O)[C@H](Cc2c[nH]cn2)NC(=O)[C@H](N)Cc2ccccc2)C(=O)N[C@@H](C(C)C)C(=O)N[C@@H](CC(C)C)C(=O)N1)C(=O)N[C@@H](C)C(=O)N[C@@H](CCCN=C(N)N)C(=O)N[C@@H](C)C(=O)N[C@@H](CCC(=O)O)C(=O)N[C@@H](CCC(N)=O)C(=O)N[C@@H](CC(C)C)C(=O)N[C@@H](C)C(=O)N[C@@H](CCC(N)=O)C(=O)N[C@@H](CCC(N)=O)C(=O)N[C@@H](C)C(=O)N[C@@H](Cc1c[nH]cn1)C(=O)N[C@@H](CO)C(=O)N[C@@H](CC(N)=O)C(=O)N[C@@H](CCCN=C(N)N)C(=O)N[C@@H](CCCCN)C(=O)N[C@@H](CC(C)C)C(=O)N[C@@H](CCCC)C(=O)N[C@@H](CCC(=O)O)C(=O)N[C@H](C(=O)N[C@H](C(=O)C(N)=O)[C@@H](C)CC)[C@@H](C)CC
23 | < 0.001 | CCCC[C@H](NC(=O)[C@H](CC(C)C)NC(=O)[C@H](CCCCN)NC(=O)[C@H](CCCN=C(N)N)NC(=O)[C@H](CC(N)=O)NC(=O)[C@H](CO)NC(=O)[C@H](Cc1c[nH]cn1)NC(=O)[C@H](C)NC(=O)[C@H](CCC(N)=O)NC(=O)[C@H](CCC(N)=O)NC(=O)[C@H](C)NC(=O)[C@H](CC(C)C)NC(=O)[C@H](CCC(N)=O)NC(=O)[C@H](CCC(=O)O)NC(=O)[C@H](C)NC(=O)[C@H](CCCN=C(N)N)NC(=O)[C@H](C)NC(=O)[C@H](CCCC)NC(=O)[C@H]1CCC(=O)NCCCC[C@H](NC(=O)[C@H](CCCN=C(N)N)NC(=O)[C@H](CC(C)C)NC(=O)[C@H](CC(C)C)NC(=O)[C@H](Cc2c[nH]cn2)NC(=O)[C@H](N)Cc2ccccc2)C(=O)N[C@@H](C(C)C)C(=O)N[C@@H](CC(C)C)C(=O)N1)C(=O)N[C@@H](CCC(=O)O)C(=O)N[C@H](C(=O)N[C@H](C(=O)C(N)=O)[C@@H](C)CC)[C@@H](C)CC
 | 0.006 | CCCC[C@H](NC(=O)[C@H](CC(C)C)NC(=O)[C@H](CCCCN)NC(=O)[C@H](CCCN=C(N)N)NC(=O)[C@H](CC(N)=O)NC(=O)[C@H](CO)NC(=O)[C@H](Cc1c[nH]cn1)NC(=O)[C@H](C)NC(=O)[C@H](CCC(N)=O)NC(=O)[C@H](CCC(N)=O)NC(=O)[C@H](C)NC(=O)[C@H](CC(C)C)NC(=O)[C@H](CCC(N)=O)NC(=O)[C@H](CCC(=O)O)NC(=O)[C@H](C)NC(=O)[C@H](CCCN=C(N)N)NC(=O)[C@H](C)NC(=O)[C@H](CCCC)NC(=O)[C@H]1CC(=O)NCCC[C@H](NC(=O)[C@H](CC(C)C)NC(=O)[C@H](CC(C)C)NC(=O)[C@H](Cc2c[nH]cn2)NC(=O)[C@H](N)Cc2ccccc2)C(=O)N[C@@H](CCC(=O)O)C(=O)N[C@@H](C(C)C)C(=O)N[C@@H](CC(C)C)C(=O)N1)C(=O)N[C@@H](CCC(=O)O)C(=O)N[C@H](C(=O)N[C@H](C(=O)C(N)=O)[C@@H](C)CC)[C@@H](C)CC
2 | 0.001 | CCCC[C@H](NC(=O)[C@@H]1CC(=O)NCCC[C@H](NC(=O)[C@H](CC(C)C)NC(=O)[C@H](CC(C)C)NC(=O)[C@H](Cc2c[nH]cn2)NC(=O)[C@H](N)Cc2ccccc2)C(=O)N[C@@H](CCC(=O)O)C(=O)N[C@@H](C(C)C)C(=O)N[C@@H](CC(C)C)C(=O)N1)C(=O)N[C@@H](C)C(=O)N[C@@H](CCCN=C(N)N)C(=O)N[C@@H](C)C(=O)N[C@@H](CCC(=O)O)C(=O)N[C@@H](CCC(N)=O)C(=O)N[C@@H](CC(C)C)C(=O)N[C@@H](C)C(=O)N[C@@H](CCC(N)=O)C(=O)N[C@@H](CCC(N)=O)C(=O)N[C@@H](C)C(=O)N[C@@H](Cc1c[nH]cn1)C(=O)N[C@@H](CO)C(=O)N[C@@H](CC(N)=O)C(=O)N[C@@H](CCCN=C(N)N)C(=O)N[C@@H](CCCCN)C(=O)N[C@@H](CC(C)C)C(=O)N[C@@H](CCCC)C(=O)N[C@@H](CCC(=O)O)C(=O)N[C@H](C(=O)N[C@H](C(=O)C(N)=O)[C@@H](C)CC)[C@@H](C)CC
